Test results taken from ChEMBL document CHEMBL4145539, “Phenylpyridine-2-ylguanidines and rigid mimetics as novel inhibitors of TNFα overproduction: Beneficial action in models of neuropathic pain and of acute lung inflammation” (Eur J Med Chem, 2018).
The source made the active and inactive calls. The rule behind the calls is not given here.

Experiments:
[1] = tested on: PBMC; experiment: Anti-inflammatory activity in human PBMC assessed as inhibition of LPS-induced TNFalpha production at 10 uM after 24 hrs by ELISA relative to control; assay type: functional
[2] = Cytotoxicity against human PBMC assessed as cell viability at 10 um after 24 hrs by WST-1 assay relative to control; assay type: cell-based; details: PBMC (peripheral blood mononuclear cells), read-out: Activity
[3] = tested on: PBMC; experiment: Anti-inflammatory activity in human PBMC assessed as inhibition of LPS-induced IL-1beta production at 10 uM after 24 hrs by ELISA relative to control; assay type: functional
[4] = tested on: PBMC; experiment: Anti-inflammatory activity in human PBMC assessed as inhibition of LPS-induced IL-1beta production after 24 hrs by ELISA; assay type: functional, cell-based
[5] = tested on: PBMC; experiment: Anti-inflammatory activity in human PBMC assessed as inhibition of LPS-induced TNFalpha production after 24 hrs by ELISA; assay type: functional, cell-based
[6] = tested on: Mus musculus; experiment: Antiallodynic activity in C57BL/6J mouse model of sciatic nerve ligation-induced neuropathic pain assessed as increase in paw withdrawal latency time at 5 mg/kg, ip bid for 17 consecutive days starting from 2 to 3 weeks post surgery measured on day 11 during compound dosing by Von Frey test; assay type: functional, organism-based
[7] = tested on: Mus musculus; experiment: Antiallodynic activity in C57BL/6J mouse model of sciatic nerve ligation-induced neuropathic pain assessed as increase in paw withdrawal latency time at 1 mg/kg, ip bid for 17 consecutive days starting from 2 to 3 weeks post surgery by Von Frey test; assay type: functional, organism-based
[8] = tested on: Mus musculus; experiment: Toxicity in C57BL/6 mouse assessed as effect on number of inflammatory cells recovered in BALF at 5 mg/kg, ip bid administered 1 hr before and 10 hrs after LPS treatment measured 24 hrs post LPS treatment by flow cytometry; assay type: organism-based; details: in vivo
[9] = tested on: Mus musculus; experiment: Toxicity in C57BL/6J mouse model of sciatic nerve ligation-induced neuropathic pain assessed as body weight loss at 5 mg/kg, ip bid for 17 consecutive days starting from 2 to 3 weeks post surgery relative to control; assay type: organism-based; details: in vivo
[10] = tested on: Mus musculus; experiment: Toxicity in C57BL/6J mouse model of sciatic nerve ligation-induced neuropathic pain assessed as body weight loss at 1 mg/kg, ip bid for 17 consecutive days starting from 2 to 3 weeks post surgery; assay type: organism-based; details: in vivo
[11] = tested on: Mus musculus; experiment: Anti-inflammatory activity in LPS-induced acute lung inflammation C57BL/6 mouse model assessed as inhibition of lymphocytes recruitment in BALF at 5 mg/kg, ip bid administered 1 hr before and 10 hrs after LPS treatment measured 24 hrs post LPS treatment by flow cytometry relative to control; assay type: functional; details: C57BL/6, ip
[12] = tested on: Mus musculus; experiment: Anti-inflammatory activity in LPS-induced acute lung inflammation C57BL/6 mouse model assessed as inhibition of neutrophils recruitment in BALF at 5 mg/kg, ip bid administered 1 hr before and 10 hrs after LPS treatment measured 24 hrs post LPS treatment by flow cytometry relative to control; assay type: functional; details: C57BL/6, ip
[13] = tested on: Mus musculus; experiment: Anti-inflammatory activity in LPS-induced acute lung inflammation C57BL/6 mouse model assessed as inhibition of TNFalpha level in BALF at 5 mg/kg, ip bid administered 1 hr before and 10 hrs after LPS treatment measured 24 hrs post LPS treatment by ELISA relative to control; assay type: functional; details: C57BL/6, ip
[14] = tested on: Mus musculus; experiment: Antiallodynic activity in C57BL/6J mouse model of sciatic nerve ligation-induced neuropathic pain assessed as increase in paw withdrawal latency time at 1 mg/kg, ip bid for 17 consecutive days starting from 2 to 3 weeks post surgery measured on day 16 during compound dosing by Von Frey test; assay type: functional, organism-based
[15] = tested on: Mus musculus; experiment: Toxicity in C57BL/6J mouse model of sciatic nerve ligation-induced neuropathic pain assessed as behavioral changes at 1 to 5 mg/kg, ip bid for 17 consecutive days starting from 2 to 3 weeks post surgery; assay type: organism-based; details: in vivo

Row | Structure (SMILES) | inhibition at 10 µM [1] | viability at 24 h, 10 µM [2] | inhibition at 10 µM [3] | also measured
1 | N=C(N)Nc1ccc(-c2ccccc2)cn1 | -9% | 97% | -1% | –
2 | N=C(N)Nc1ccc(-c2ccc(Cl)cc2)cn1 | 72% | 23% | 97% | –
3 | COc1ccccc1-c1cccc(NC(=N)N)n1 | 7% | 106% | 1% | –
4 | N=C(N)Nc1cccc(-c2ccccc2)n1 | 18% | 100% | 3% | IC50 [4]: > 30 µM; IC50 [5]: 18.6 µM
5 | CNCCC=C1c2ccccc2CCc2ccccc21 | – | – | – | Activity [6]: Active; Activity [7]: inactive
6 | NC(=S)Nc1cc(-c2ccccc2)ccn1 | 4% | 86% | 1% | –
7 | COc1ccc(-c2ccc(NC(=N)N)nc2)cc1 | 58% | 34% | 48% | –
8 | N=C(N)Nc1cccc(-c2ccccc2Cl)n1 | 47% | 74% | 9% | IC50 [4]: > 30 µM; IC50 [5]: 19.2 µM
9 | N=C(N)Nc1ccc(-c2ccccc2Cl)cn1 | 82% | 55% | 96% | –
10 | NC1=Nc2ccc(-c3ccccc3)cc2CN1 | 22% | 90% | – | –
11 | COc1ccc(-c2ccnc(NC(=N)N)c2)cc1 | 69% | 34% | 86% | –
12 | N=C(N)Nc1cc(-c2ccccc2Cl)ccn1 | 65% | 42% | 23% | –
13 | N=C(N)Nc1ccc(-c2cccc(Cl)c2)cn1 | 52% | 94% | 8% | IC50 [4]: 17.5 µM; IC50 [5]: 5.5 µM
14 | COc1cccc(-c2ccc(NC(=N)N)nc2)c1 | 25% | 116% | 4% | –
15 | COc1ccc(-c2cccc(NC(=N)N)n2)cc1 | 27% | 94% | -6% | –
16 | N=C(N)Nc1cc(-c2ccc(C(F)(F)F)cc2)ccn1 | 71% | 24% | 98% | –
17 | NC(N)=Nc1cc(-c2ccccc2)ccn1 | – | 72% | – | Activity [8]: Non-Toxic; Activity [9]: 5%; Activity [10]: Non-Toxic

Row | Structure (SMILES) | inhibition at 10 µM [1] | viability at 24 h, 10 µM [2] | inhibition at 10 µM [3] | also measured
18 | N=C(N)Nc1ncccc1-c1ccccc1 | 11% | 108% | 1% | –
19 | N=C(N)Nc1cc(-c2ccccc2)ccn1 | 67% | – | 91% | inhibition in vivo at 5 mg/kg [11]: 52%; inhibition in vivo at 5 mg/kg [12]: 39%; IC50 [4]: 5.8 µM; Activity [7]: Active; IC50 [5]: 1.2 µM
20 | N=C(N)Nc1cc(-c2ccc(Cl)cc2)ccn1 | 69% | 24% | 97% | –
21 | N=C(N)Nc1cc(-c2cccc(Cl)c2)ccn1 | 64% | 38% | 53% | –
22 | N=C(N)Nc1cccc(-c2ccc(Cl)cc2)n1 | 72% | 35% | 77% | –
23 | NC1=Nc2cccc(-c3ccccc3)c2CN1 | 7% | 111% | 0% | –
24 | NC1=Nc2cc(-c3ccccc3)ccc2CCN1 | -7% | 100% | -4% | –
25 | COc1ccccc1-c1ccc(NC(=N)N)nc1 | 56% | 78% | 4% | IC50 [4]: > 30 µM; IC50 [5]: 7.7 µM
26 | COc1cccc(-c2cccc(NC(=N)N)n2)c1 | 7% | 104% | 2% | –
27 | NC1=Nc2cc(-c3ccccc3)ccc2CN1 | 76% | 81% | 93% | inhibition in vivo at 5 mg/kg [13]: 49%; inhibition in vivo at 5 mg/kg [11]: 63%; Activity [6]: Active; Activity [8]: Non-Toxic; inhibition in vivo at 5 mg/kg [12]: 62%; IC50 [4]: 3.7 µM; IC50 [5]: 1 µM; Activity [14]: Active; Activity [15]: Non-Toxic
28 | COc1ccc(C2CNC(=O)C2)cc1OC1CCCC1 (centres undefined) [ROLIPRAM] | 79% | 104% | – | IC50 [5]: 0.13 µM
29 | COc1cccc(-c2ccnc(NC(=N)N)c2)c1 | 56% | 66% | 29% | –
30 | N=C(N)Nc1cccc(-c2cccc(Cl)c2)n1 | 74% | 40% | 80% | –
31 | COc1ccccc1-c1ccnc(NC(=N)N)c1 | 10% | 99% | -1% | –
32 | Nc1nc2ccc(-c3ccccc3)cc2[nH]1 | 15% | 114% | 3% | –
33 | COc1ccccc1-c1ccc2c(c1)CNC(N)=N2 | 13% | 126% | 1% | –
